These results are taken from patent US8198273B2, “Compounds and methods for kinase modulation, and indications therefor” (Plexxikon Inc., priority 2009, dated 2012).

For one assay, the system named is Colo205 xenograft. As to the kind of experiment: Colo205 xenograft mouse model, tumor growth inhibition. It counts as in vivo. To be noted: COLO 205, 336 h, female nu/nu mice, 10 mg/kg daily for fourteen days. The method, then: Tumor growth is monitored to approximately 100 mg size, and mice are distributed to treatment groups such that the mean tumor burden within a group is within 10% of the overall mean tumor burden. […] Mice are observed daily, with tumor burden and body weights measured twice a week. Animals with tumor burden above 1500-2000 mg and any animals in moribund condition are euthanized. The average tumor growth of vehicle control group mice is compared to the average tumor growth of the test compound mice. Percent tumor growth inhibition is calculated as 100×[(tumor growth control-tumor growth test compound)/tumor growth control].

In a further assay the target is T1, A-Raf (Homo sapiens, UniProt P10398).
T1 sequence (P10398 1-606): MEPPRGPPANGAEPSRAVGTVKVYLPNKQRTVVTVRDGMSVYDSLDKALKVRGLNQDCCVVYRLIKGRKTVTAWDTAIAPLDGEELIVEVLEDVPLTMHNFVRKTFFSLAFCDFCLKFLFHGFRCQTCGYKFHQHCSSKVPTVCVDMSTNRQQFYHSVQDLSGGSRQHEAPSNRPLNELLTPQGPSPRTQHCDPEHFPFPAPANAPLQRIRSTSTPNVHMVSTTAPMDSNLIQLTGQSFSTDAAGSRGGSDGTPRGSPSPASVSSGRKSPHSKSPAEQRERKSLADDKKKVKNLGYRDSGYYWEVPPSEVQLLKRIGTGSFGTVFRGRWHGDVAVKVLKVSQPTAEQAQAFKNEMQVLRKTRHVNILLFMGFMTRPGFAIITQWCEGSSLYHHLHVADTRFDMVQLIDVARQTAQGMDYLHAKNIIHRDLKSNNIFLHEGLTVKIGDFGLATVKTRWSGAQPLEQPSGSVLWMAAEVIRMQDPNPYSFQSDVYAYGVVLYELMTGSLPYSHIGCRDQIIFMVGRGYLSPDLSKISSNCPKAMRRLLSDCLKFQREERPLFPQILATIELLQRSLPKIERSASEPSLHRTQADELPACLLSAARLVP
As to the kind of experiment: A-Raf biochemical kinase inhibition (AlphaScreen, biotin-MEK1 substrate). To be noted: 100 μM ATP. The method, then: Compounds to be tested are diluted in dimethyl sulfoxide to a concentration of 0.1 mM. These are serially diluted 15 μL into 30 μL of dimethyl sulfoxide seven times in 96 well plates for a total of 8 dilution points, and for each dilution point 1 μL is added to a well of an assay plate. […] The reaction is started with addition of 10 μL of 200 μM ATP (i.e. final 100 μM ATP). […] The plates are incubated for 3 hours at room temperature and read on Envision reader (Perkin Elmer). […] The signal vs. compound concentration is used to determine the IC50.

The subject of assay [1] is IPC298 melanoma cells (Ras mutation). As to the kind of experiment: IPC298 cell growth inhibition (ATPlite). It counts as cell-based. The settings on record: Homo sapiens, IPC-298, 72 h; IPC298, 3 days incubation. The method, then:
(§1) Compounds are assessed in a variety of cell based assays. For example human cell lines with B-Raf V600E mutation (A375 melanoma, SKMEL3 melanoma, and COL0205 colon adenocarcinoma), as well as tumorigenic cell lines with wild-type B-RAF (SW620 colon adenocarcinoma) or with Ras mutations (SKMEL2 melanoma and IPC298 melanoma). Similar assays may be used to assess additional tumorigenic cell lines with Ras mutations, including, but not limited to, M202, M207, M243, M244, M296, S117, HCT116, HCT15, DLD1, MiaPaCa, A549, NCI-H23, NCI-H460, HOP62, MDA-MB231, Hs-578T, HL60, MOLT-4, and CCRF-CEM.
(§2) On day 1, cells are counted, then centrifuged in a conical tube for 5 minutes at 1000 rpm. The supernatant is removed and cells are re-suspended as follows: • SW620 (ATCC catalog #CCL-27): resuspend in Leibovitz's L-15 medium, 2 mM L-glutamine, 10% fetal bovine serum to 6×10^4 cells/mL. • A375 (ATCC catalog #CRL-1619): resuspend in Dulbecco's modified Eagle's medium, 4 mM L-glutamine, 4.5 g/L D-glucose, 10% fetal bovine serum to 6×10^4 cells/mL. • COL0205 (ATCC catalog #CCL-222): resuspend in RPMI 1640, 2 mM L-glutamine, 1.5 g/L sodium bicarbonate, 4.5 g/L D-glucose, 10 mM HEPES, 1.0 mM sodium pyruvate, 10% fetal bovine serum to 6×10^4 cells/mL. • SKMEL2 (ATCC catalog #HTB-68): resuspend in Minimum Eagle essential medium, 2 mM L-glutamine, 1.5 g/L sodium bicarbonate, 0.1 mM non-essential amino acids, 1.0 mM sodium pyruvate, 10% fetal bovine serum to 6×10^4 cells/mL. • SKMEL3 (ATCC catalog #HTB-69): resuspend in McCoy's 5A medium, 1.5 mM L-glutamine, 15% fetal bovine serum to 6×10^4 cells/mL. • IPC298 (DSMZ catalog #ACC 251): resuspend in RPMI 1640, 2 mM L-glutamine, 10% fetal bovine serum to 6×10^4 cells/mL.
(§3) The cells are plated, 50 μL in each well of a 96-well dish (Corning 3610) and incubated at 37° C. in 5% CO2 overnight, cells plated to a final concentration of cells as follows:
On day 2, compound at a maximum concentration of 5 mM is serially diluted 1:3 for a total of 8 point titration with DMSO as a control. […]
(§4) On day 5, ATPlite 1 step Luminescence Assay System (Perkin Elmer #6016739) is brought to room temperature along with the cell cultures. ATPlite is added 25 μL to each well, shake for 2 minutes, and the cells are incubated at room temperature for 10 minutes, then luminescence is read on Safire reader. The measured luminescence correlates directly with cell number, such that the reading as a function of compound concentration is used to determine the IC50 value.
It is understood that the results of these assays may vary as assay conditions are varied. Inhibition levels determined under the conditions described herein represent a relative activity for the compounds tested under the specific conditions employed. […]

The subject of assay [2] is SKMEL3 melanoma cells (B-Raf V600E). As to the kind of experiment: SKMEL3 cell growth inhibition (ATPlite). The settings on record: Homo sapiens, SK-MEL3, 72 h; SKMEL3, 3 days incubation. It counts as cell-based. The method, then: as §1, §2, §3
SKMEL3: 3,000 cells per well.
On day 2, compound at a maximum concentration of 5 mM is serially diluted 1:3 for a total of 8 point titration with DMSO as a control. A 1 μL aliquot of each dilution point and control is added to 249 μL growth media and 50 μL is added to a well containing cells, providing 10 μM compound at the maximum concentration point. The cells are incubated for 3 days at 37° C. in 5% CO2.
as §4
It is understood that the results of these assays may vary as assay conditions are varied. Inhibition levels determined under the conditions described herein represent a relative activity for the compounds tested under the specific conditions employed. The cell based assays are likely to show variability due to the complexity of the system and the sensitivity thereof to any changes in the assay conditions. […] Results for compounds that are tested and show substantially no inhibition below the highest tested concentration are represented as “-” in the tables below. In some instances, the compounds were not tested in all of the assays, or assay results were not valid, as indicated by NA in the tables below.
For orientation: In ATP-based viability assays light output follows the ATP content of the culture.

The molecule `N#Cc1cnc2[nH]cc(C(=O)c3c(F)ccc(NS(=O)(=O)c4ccccc4)c3F)c2c1` [P-2046, N-[3-(5-Cyano-1H-pyrrolo[2,3-b]pyridine-3-carbonyl)-2,4-difluoro-phenyl]-benzenesulfonamide] displayed an inhibition in vivo at 10 mg/kg in the assay on Colo205 xenograft of 70%. The molecule also gave an IC50 against A-Raf below 0.01 µM. `N#Cc1cnc2[nH]cc(C(=O)c3c(F)ccc(NS(=O)(=O)c4ccccc4F)c3F)c2c1` [P-2011, N-[3-(5-Cyano-1H-pyrrolo[2,3-b]pyridine-3-carbonyl)-2,4-difluoro-phenyl]-2-fluoro-benzenesulfonamide] came in with an inhibition in vivo at 10 mg/kg in the assay with Colo205 xenograft of 72%. On A-Raf, this molecule showed an IC50 below 0.01 µM.

Consider `COc1ncc(-c2cnc3[nH]cc(C(=O)c4c(F)ccc(NS(=O)(=O)c5cc(F)ccc5F)c4F)c3c2)cn1` [P-2042, N-{2,4-Difluoro-3-[5-(2-methoxy-pyrimidin-5-yl)-1H-pyrrolo[2,3-b]pyridine-3-carbonyl]-phenyl}-2,5-difluoro-benzenesulfonamide], for which the IC50 in assay [1] and in assay [2] was below 1 µM each time. `CCCS(=O)(=O)Nc1ccc(F)c(C(=O)c2c[nH]c3ncc(-c4cnc(SC)nc4)cc23)c1F` [P-2189, Propane-1-sulfonic acid {2,4-difluoro-3-[5-(2-methylsulfanyl-pyrimidin-5-yl)-1H-pyrrolo[2,3-b]pyridine-3-carbonyl]-phenyl}-amide] showed a half-inhibitory concentration (IC50) in assay [1] below 10 µM. Turning to `COc1ncc(-c2cnc3[nH]cc(C(=O)c4c(F)ccc(NS(=O)(=O)c5ccccc5F)c4F)c3c2)cn1` [P-2041, N-{2,4-Difluoro-3-[5-(2-methoxy-pyrimidin-5-yl)-1H-pyrrolo[2,3-b]pyridine-3-carbonyl]-phenyl}-2-fluoro-benzenesulfonamide], the IC50 in assay [1] and in assay [2] was below 1 µM in each case. In the assay on Colo205 xenograft, `CCCS(=O)(=O)Nc1ccc(F)c(C(=O)c2c[nH]c3ncc(-c4ccc(OCCN5CCOCC5)nc4)cc23)c1F` [P-2232, Propane-1-sulfonic acid (2,4-difluoro-3-{5-[6-(2-morpholin-4-yl-ethoxy)-pyridin-3-yl]-1H-pyrrolo[2,3-b]pyridine-3-carbonyl}-phenyl)-amide] showed an inhibition in vivo at 10 mg/kg of 54%. Moreover, the IC50 on A-Raf was below 0.01 µM. `COc1ncc(-c2cnc3[nH]cc(C(=O)c4c(F)ccc(NS(=O)(=O)c5cccc(F)c5)c4F)c3c2)cn1` [P-2045, N-{2,4-Difluoro-3-[5-(2-methoxy-pyrimidin-5-yl)-1H-pyrrolo[2,3-b]pyridine-3-carbonyl]-phenyl}-3-fluoro-benzenesulfonamide]: the IC50 in assay [2] is below 5 µM. `CCCS(=O)(=O)Nc1ccc(F)c(C(=O)c2c[nH]c3ncc(-c4cnc(N(C)C)nc4)cc23)c1F` [P-2196, Propane-1-sulfonic acid {3-[5-(2-dimethylamino-pyrimidin-5-yl)-1H-pyrrolo[2,3-b]pyridine-3-carbonyl]-2,4-difluoro-phenyl}-amide]: the half-maximal inhibitory concentration (IC50) is below 10 µM in assay [1], below 1 µM in assay [2] and below 0.01 µM at A-Raf. This molecule also returned an inhibition in vivo at 10 mg/kg in the assay on Colo205 xenograft of 71%. Turning to `C#Cc1cnc2[nH]cc(C(=O)c3c(F)ccc(NS(=O)(=O)CCC)c3F)c2c1` [P-2260, Propane-1-sulfonic acid [3-(5-ethynyl-1H-pyrrolo[2,3-b]pyridine-3-carbonyl)-2,4-difluoro-phenyl]-amide], the inhibition in vivo at 10 mg/kg with Colo205 xenograft amounted to 79%. Besides, the IC50 against A-Raf was below 0.01 µM. The matching figures for `CCCS(=O)(=O)Nc1ccc(F)c(C(=O)c2c[nH]c3ncc(C#CCOC)cc23)c1F` [P-2239, Propane-1-sulfonic acid {2,4-difluoro-3-[5-(3-methoxy-prop-1-ynyl)-1H-pyrrolo[2,3-b]pyridine-3-carbonyl]-phenyl}-amide]: 4% and below 0.01 µM. For `Cc1cnc2[nH]cc(C(=O)c3c(F)ccc(NS(=O)(=O)c4cccnc4)c3F)c2c1` [P-2069, Pyridine-3-sulfonic acid [2,4-difluoro-3-(5-methyl-1H-pyrrolo[2,3-b]pyridine-3-carbonyl)-phenyl]-amide] the same measures were 29% and below 0.1 µM. Molecule `CCCS(=O)(=O)Nc1ccc(F)c(C(=O)c2c[nH]c3ncc(-c4cnc(N5CCCC5)nc4)cc23)c1F` [P-2219, Propane-1-sulfonic acid {2,4-difluoro-3-[5-(2-pyrrolidin-1-yl-pyrimidin-5-yl)-1H-pyrrolo[2,3-b]pyridine-3-carbonyl]-phenyl}-amide] displayed an IC50 in assay [2] below 5 µM. In turn, `N#Cc1cnc2[nH]cc(C(=O)c3cccc(NS(=O)(=O)c4ccccc4)c3F)c2c1` [P-2056, N-[3-(5-Cyano-1H-pyrrolo[2,3-b]pyridine-3-carbonyl)-2-fluoro-phenyl]-benzenesulfonamide] registered an inhibition in vivo at 10 mg/kg in the assay with Colo205 xenograft of 66%. The same molecule yielded an IC50 against A-Raf below 0.01 µM. The matching figures for `Cc1cnc2[nH]cc(C(=O)c3c(F)ccc(NS(=O)(=O)c4cc(F)ccc4F)c3F)c2c1` [P-2015, N-[2,4-Difluoro-3-(5-methyl-1H-pyrrolo[2,3-b]pyridine-3-carbonyl)-phenyl]-2,5-difluoro-benzenesulfonamide]: 67% and below 0.01 µM.

One may read the inhibition in vivo as the change of the read-out against control, counted positive when it falls. What is called IC50 is the midpoint of a concentration-inhibition curve. Low values mean inhibition by little substance, high ones a need for much substance.
